In paper PMC10776687 (Nature Communications, 2024) one finds IC50 data, which are given here for five compounds.

Format in all cases: cell-based
Assay [1] concerns the target T1, human serotonin transporter (SERT) (Homo sapiens, UniProt P31645).
T1 construct: gene SLC6A4; human WT SERT, N-terminal eYFP fusion, stably expressed in HEK293 cells
The assay can be described thus: [3H]5HT uptake inhibition in HEK293 cells; whole-cell patch clamp (partial substrate, kon/koff). For orientation: In patch-clamp work, channel activity is measured electrically.

Assay [2] addresses T1, human serotonin transporter (SERT). Description: [3H]5HT uptake kinetics (Km/Vmax) in HEK293 cells at the compound's IC50, n = […].
The target is the same in assay [3]. The assay can be described thus: [3H]5HT uptake inhibition in HEK293 cells; whole-cell patch clamp (almost pure inhibitor).
Assay [4] shares this target. The assay can be described thus: [3H]5HT uptake inhibition in HEK293 cells; whole-cell patch clamp (partial substrate, kon/koff); efflux.

SMILES strings stand for the structures. pIC50: −log10 of the molar value.

T1 sequence (P31645 whole entry, the tested form may be a part): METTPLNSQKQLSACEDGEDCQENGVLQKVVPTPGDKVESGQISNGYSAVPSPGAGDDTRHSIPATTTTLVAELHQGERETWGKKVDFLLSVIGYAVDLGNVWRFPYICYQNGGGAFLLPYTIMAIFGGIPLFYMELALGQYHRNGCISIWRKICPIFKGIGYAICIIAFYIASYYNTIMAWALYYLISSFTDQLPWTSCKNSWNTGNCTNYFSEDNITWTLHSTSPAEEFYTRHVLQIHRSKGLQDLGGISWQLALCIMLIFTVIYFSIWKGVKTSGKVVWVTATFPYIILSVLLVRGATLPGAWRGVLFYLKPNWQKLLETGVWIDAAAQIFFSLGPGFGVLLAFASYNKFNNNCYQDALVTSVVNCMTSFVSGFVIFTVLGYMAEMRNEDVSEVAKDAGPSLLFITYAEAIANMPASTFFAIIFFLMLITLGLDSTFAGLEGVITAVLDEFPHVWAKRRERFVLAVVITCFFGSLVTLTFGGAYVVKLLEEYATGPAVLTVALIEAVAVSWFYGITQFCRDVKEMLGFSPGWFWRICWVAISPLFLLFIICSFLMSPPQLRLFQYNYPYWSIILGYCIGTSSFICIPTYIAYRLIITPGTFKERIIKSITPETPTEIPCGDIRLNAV

Compound `NCCCCc1c[nH]c2ccc(O)cc12` [B-5HT, butyl (B)-5HT] showed a pIC50 in assay [1] of 6.57. For the compound `CC[C@H]1C[C@@H]2C[C@H]3c4[nH]c5ccc(OC)cc5c4CCN(C2)[C@@H]13` [IBO, ibogaine], the IC50 in assay [2] stood at 24000 nM. This counts as double-digit micromolar.

As to `NCc1c[nH]c2ccc(O)cc12` [M-5HT], the negative logarithm of the IC50 (pIC50) in assay [3] is 4.10. The compound `COC(=O)[C@H]1[C@@H](OC(=O)c2ccccc2)C[C@@H]2CC[C@H]1N2C` [COC, cocaine] registered an IC50 in assay [2] of 4000 nM. `NCCCc1c[nH]c2ccc(O)cc12` [P-5HT, propyl (P)-5HT] gave a pIC50 in assay [4] of 6.23.

In general, pIC50 refers to the negative decadic logarithm of the IC50, by convention in mol/L. A higher pIC50 goes with a small IC50. One may read the IC50 as the concentration that inhibits the measured activity by half. Higher therefore signals weaker potency in that assay.
